From the NIST ThermoML archive (doi:10.1021/je4009415)
± gives the expanded uncertainty stated by the source.

Experiment: xn = mol fraction of the nth substance listed
Conditions: Liquid, Vibrating tube method

CCC(=O)OC [methyl propanoate] + CCCCCCC
Conditions | mass density [kg/m3]
288.15 K, x1 = 0.0584 | 696.1 ± 0.27
288.15 K, x1 = 0.1524 | 710.11 ± 0.29
288.15 K, x1 = 0.2121 | 719.49 ± 0.31
288.15 K, x1 = 0.2626 | 728.22 ± 0.33
288.15 K, x1 = 0.2841 | 731.88 ± 0.34
288.15 K, x1 = 0.3577 | 745.5 ± 0.37
288.15 K, x1 = 0.4021 | 754.13 ± 0.39
288.15 K, x1 = 0.4565 | 765.31 ± 0.41
288.15 K, x1 = 0.5036 | 775.51 ± 0.44
288.15 K, x1 = 0.5554 | 787.28 ± 0.47
288.15 K, x1 = 0.6032 | 798.81 ± 0.5
288.15 K, x1 = 0.651 | 810.73 ± 0.53
288.15 K, x1 = 0.7008 | 824.05 ± 0.57
288.15 K, x1 = 0.742 | 835.61 ± 0.61
288.15 K, x1 = 0.7927 | 850.46 ± 0.66
288.15 K, x1 = 0.8457 | 866.96 ± 0.71
288.15 K, x1 = 0.953 | 903.48 ± 0.84
288.15 K, x1 = 1 | 921.21 ± 0.89
298.15 K, x1 = 0.0606 | 687.94 ± 0.27
298.15 K, x1 = 0.1046 | 694.01 ± 0.28
298.15 K, x1 = 0.1706 | 703.97 ± 0.3
298.15 K, x1 = 0.2332 | 713.99 ± 0.32
298.15 K, x1 = 0.2863 | 722.89 ± 0.34
298.15 K, x1 = 0.332 | 730.95 ± 0.35
298.15 K, x1 = 0.3827 | 740.59 ± 0.37
298.15 K, x1 = 0.4242 | 748.73 ± 0.39
298.15 K, x1 = 0.4831 | 760.98 ± 0.42
298.15 K, x1 = 0.5328 | 771.82 ± 0.45
298.15 K, x1 = 0.5887 | 784.89 ± 0.49
298.15 K, x1 = 0.6395 | 797.24 ± 0.52
298.15 K, x1 = 0.6831 | 808.46 ± 0.55
298.15 K, x1 = 0.733 | 821.94 ± 0.59
298.15 K, x1 = 0.7758 | 834.28 ± 0.63
298.15 K, x1 = 0.8196 | 847.29 ± 0.67
298.15 K, x1 = 0.8646 | 861.68 ± 0.72
298.15 K, x1 = 0.9035 | 874.46 ± 0.76
298.15 K, x1 = 0.9591 | 893.83 ± 0.83
298.15 K, x1 = 1 | 909.1 ± 0.88
308.15 K, x1 = 0.046 | 676.88 ± 0.27
308.15 K, x1 = 0.0974 | 683.97 ± 0.28
308.15 K, x1 = 0.1499 | 691.6 ± 0.29
308.15 K, x1 = 0.2093 | 700.71 ± 0.31
308.15 K, x1 = 0.2472 | 706.83 ± 0.32
308.15 K, x1 = 0.2655 | 709.84 ± 0.33
308.15 K, x1 = 0.3021 | 716.16 ± 0.34
308.15 K, x1 = 0.3462 | 723.99 ± 0.36
308.15 K, x1 = 0.3973 | 733.51 ± 0.38
308.15 K, x1 = 0.4379 | 741.49 ± 0.4
308.15 K, x1 = 0.5001 | 754.33 ± 0.43
308.15 K, x1 = 0.5482 | 764.86 ± 0.46
308.15 K, x1 = 0.6013 | 777.11 ± 0.49
308.15 K, x1 = 0.6438 | 787.52 ± 0.52
308.15 K, x1 = 0.7002 | 801.92 ± 0.56
308.15 K, x1 = 0.7516 | 815.93 ± 0.6
308.15 K, x1 = 0.7947 | 828.3 ± 0.64
308.15 K, x1 = 0.8541 | 846.5 ± 0.7
308.15 K, x1 = 0.8904 | 858.19 ± 0.74
308.15 K, x1 = 0.9494 | 878.31 ± 0.81
308.15 K, x1 = 1 | 896.91 ± 0.86
318.15 K, x1 = 0.054 | 669.26 ± 0.27
318.15 K, x1 = 0.1006 | 675.53 ± 0.28
318.15 K, x1 = 0.1635 | 684.64 ± 0.29
318.15 K, x1 = 0.1984 | 689.88 ± 0.3
318.15 K, x1 = 0.2627 | 699.98 ± 0.32
318.15 K, x1 = 0.2892 | 704.22 ± 0.33
318.15 K, x1 = 0.3492 | 714.64 ± 0.36
318.15 K, x1 = 0.3962 | 723.32 ± 0.38
318.15 K, x1 = 0.4482 | 733.48 ± 0.4
318.15 K, x1 = 0.5006 | 744.15 ± 0.42
318.15 K, x1 = 0.554 | 755.69 ± 0.45
318.15 K, x1 = 0.5928 | 764.54 ± 0.48
318.15 K, x1 = 0.6531 | 779.07 ± 0.52
318.15 K, x1 = 0.7022 | 791.53 ± 0.55
318.15 K, x1 = 0.7463 | 803.36 ± 0.59
318.15 K, x1 = 0.796 | 817.45 ± 0.63
318.15 K, x1 = 0.8421 | 831.26 ± 0.67
318.15 K, x1 = 0.8911 | 846.73 ± 0.72
318.15 K, x1 = 0.9487 | 866.17 ± 0.79
318.15 K, x1 = 1 | 884.71 ± 0.84
328.15 K, x1 = 0.0434 | 659.02 ± 0.27
328.15 K, x1 = 0.1 | 666.42 ± 0.28
328.15 K, x1 = 0.1539 | 673.86 ± 0.29
328.15 K, x1 = 0.2137 | 682.78 ± 0.31
328.15 K, x1 = 0.263 | 690.45 ± 0.32
328.15 K, x1 = 0.361 | 707.07 ± 0.36
328.15 K, x1 = 0.3858 | 711.54 ± 0.37
328.15 K, x1 = 0.4619 | 725.95 ± 0.4
328.15 K, x1 = 0.5057 | 734.85 ± 0.42
328.15 K, x1 = 0.5548 | 745.3 ± 0.45
328.15 K, x1 = 0.6006 | 755.62 ± 0.48
328.15 K, x1 = 0.6513 | 767.59 ± 0.51
328.15 K, x1 = 0.7013 | 780.04 ± 0.54
328.15 K, x1 = 0.7484 | 792.52 ± 0.58
328.15 K, x1 = 0.7954 | 805.67 ± 0.62
328.15 K, x1 = 0.8441 | 820.03 ± 0.66
328.15 K, x1 = 0.8954 | 836.18 ± 0.72
328.15 K, x1 = 0.9351 | 849.33 ± 0.76
328.15 K, x1 = 1 | 872.22 ± 0.83
